Laboratory results: patent US12552766B2, “Pesticidally active azole amide compounds” (SYNGENTA CROP PROTECTION AG, priority 2019, dated 2026)

Tests used:
Assay type in all cases: in vivo
[1] = system: Plutella xylostella (Diamond Back Moth); test: Example B5: Plutella xylostella, artificial diet, 24-well; settings: 192 h, application rate of 200 ppm, eggs, 8 days after infestation, read-out: control in at least one of the two categories (mortality or growth inhibition)
Protocol: 24-well microtiter plates with artificial diet were treated with aqueous test solutions prepared from 10′000 ppm DMSO stock solutions by pipetting. After drying, Plutella eggs were pipetted through a plastic stencil onto a gel blotting paper and the plate was closed with it. The samples were assessed for mortality and growth inhibition in comparison to untreated samples 8 days after infestation.

[2] = system: Chilo suppressalis (Striped Rice Stemborer); test: Example B4: Chilo suppressalis, artificial diet; settings: 144 h, application rate of 200 ppm, L2 larvae, 6 days after infestation, read-out: control in at least one of the three categories (mortality, anti-feedant effect, or growth inhibition)
Protocol: 24-well microtiter plates with artificial diet were treated with aqueous test solutions prepared from 10′000 ppm DMSO stock solutions by pipetting. After drying, the plates were infested with L2 larvae (6-8 per well). The samples were assessed for mortality, anti-feeding effect, and growth inhibition in comparison to untreated samples 6 days after infestation. Control of Chilo suppressalis by a test sample is given when at least one of the categories mortality, anti-feedant effect, and growth inhibition is higher than the untreated sample.

[3] = system: Spodoptera littoralis (Egyptian Cotton Leaf Worm); test: Example B9: Spodoptera littoralis, spray on cotton leaf discs; settings: foliar, 72 h, application rate of 200 ppm, L1 larvae, 3 days after infestation, read-out: control in at least one of the three categories (mortality, anti-feedant effect, or growth inhibition)
Protocol: Cotton leaf discs were placed onto agar in 24-well microtiter plates and sprayed with aqueous test solutions prepared from 10′000 ppm DMSO stock solutions. After drying the leaf discs were infested with five L1 larvae. The samples were assessed for mortality, anti-feeding effect, and growth inhibition in comparison to untreated samples 3 days after infestation. Control of Spodoptera littoralis by a test sample is given when at least one of the categories mortality, anti-feedant effect, and growth inhibition is higher than the untreated sample.

[4] = system: Diabrotica Balteata (Corn Root Worm); test: Example B1: Diabrotica balteata, spray on maize sprouts; settings: 96 h, application rate of 200 ppm, L2 larvae, 4 days after infestation, read-out: control in at least one of the two categories (mortality or growth inhibition)
Protocol: Maize sprouts placed onto an agar layer in 24-well microtiter plates were treated with aqueous test solutions prepared from 10′000 ppm DMSO stock solutions by spraying. After drying, the plates were infested with L2 larvae (6 to 10 per well). The samples were assessed for mortality and growth inhibition in comparison to untreated samples 4 days after infestation.

CC(NC(=O)c1cc(C(F)(F)F)cc(C(F)(F)F)c1)c1nc(Br)nn1-c1ncc(OCC(F)F)cn1 (stereo not shown) [Compound P25, N-[1-[5-bromo-2-[5-(2,2-difluoroethoxy)pyrimidin-2-yl]-1,2,4-triazol-3-yl]ethyl]-3,5-bis(trifluoromethyl) benzamide]
≥ 80%: percent control (mortality or growth inhibition) at 200 ppm [1] | percent control (mortality, anti-feedant effect or growth inhibition) at 200 ppm [2] | percent control (mortality, anti-feedant effect or growth inhibition) at 200 ppm [3] | percent control (mortality or growth inhibition) at 200 ppm [4]

CC(NC(=O)c1cc(OC(F)F)cc(C(F)(F)F)c1)c1nc(Br)nn1-c1ccc(OCC(F)(F)F)cn1 (stereo not shown) [Compound P38, N-[1-[5-bromo-2-[5-(2,2,2-trifluoroethoxy)-2-pyridyl]-1,2,4-triazol-3-yl]ethyl]-3-(difluoromethoxy)-5-(trifluoromethyl) benzamide]
≥ 80%: percent control (mortality or growth inhibition) at 200 ppm [1] | percent control (mortality, anti-feedant effect or growth inhibition) at 200 ppm [2] | percent control (mortality, anti-feedant effect or growth inhibition) at 200 ppm [3] | percent control (mortality or growth inhibition) at 200 ppm [4]

CC(NC(=O)c1cc(Cl)cc(C(F)(F)F)c1)c1nc(Br)nn1-c1ccc(OCC(F)(F)F)cn1 (stereo not shown) [Compound P37, N-[1-[5-bromo-2-[5-(2,2,2-trifluoroethoxy)-2-pyridyl]-1,2,4-triazol-3-yl]ethyl]-3-chloro-5-(trifluoromethyl) benzamide]
≥ 80%: percent control (mortality or growth inhibition) at 200 ppm [1] | percent control (mortality, anti-feedant effect or growth inhibition) at 200 ppm [2] | percent control (mortality, anti-feedant effect or growth inhibition) at 200 ppm [3]

CC(NC(=O)c1cc(OCC(F)(F)F)cc(C(F)(F)F)c1)c1nc(Br)nn1-c1ccc(OCC(F)(F)F)cn1 (stereo not shown) [Compound P39, N-[1-[5-bromo-2-[5-(2,2,2-trifluoroethoxy)-2-pyridyl]-1,2,4-triazol-3-yl]ethyl]-3-(2,2,2-trifluoroethoxy)-5-(trifluoromethyl) benzamide]
≥ 80%: percent control (mortality or growth inhibition) at 200 ppm [1] | percent control (mortality, anti-feedant effect or growth inhibition) at 200 ppm [3]

CC(NC(=O)c1cc(C(F)F)cc(C(F)(F)F)c1)c1nc(Br)nn1-c1ccc(OC(F)F)cn1 (stereo not shown) [Compound P51, N-[1-[5-bromo-2-[5-(difluoromethoxy)-2-pyridyl]-1,2,4-triazol-3-yl]ethyl]-3-(difluoromethyl)-5-(trifluoromethyl) benzamide]
≥ 80%: percent control (mortality or growth inhibition) at 200 ppm [1] | percent control (mortality, anti-feedant effect or growth inhibition) at 200 ppm [2] | percent control (mortality, anti-feedant effect or growth inhibition) at 200 ppm [3] | percent control (mortality or growth inhibition) at 200 ppm [4]

CC(NC(=O)c1cc(SC(F)(F)F)cc(C(F)(F)F)c1)c1nc(Br)nn1-c1ncc(OCC(F)F)cn1 (stereo not shown) [Compound P24, N-[1-[5-bromo-2-[5-(2,2-difluoroethoxy)pyrimidin-2-yl]-1,2,4-triazol-3-yl]ethyl]-3-(trifluoromethyl)-5-(trifluoromethyl-sulfanyl)benzamide]
≥ 80%: percent control (mortality or growth inhibition) at 200 ppm [1] | percent control (mortality, anti-feedant effect or growth inhibition) at 200 ppm [2] | percent control (mortality, anti-feedant effect or growth inhibition) at 200 ppm [3] | percent control (mortality or growth inhibition) at 200 ppm [4]

CC(NC(=O)c1cc(OC(F)(F)F)cc(C(F)(F)F)c1)c1nc(Br)nn1-c1ncc(OCC(F)F)cn1 (stereo not shown) [Compound P22, N-[1-[5-bromo-2-[5-(2,2-difluoroethoxy)pyrimidin-2-yl]-1,2,4-triazol-3-yl]ethyl]-3-(trifluoromethoxy)-5-(trifluoromethyl) benzamide]
≥ 80%: percent control (mortality or growth inhibition) at 200 ppm [1] | percent control (mortality, anti-feedant effect or growth inhibition) at 200 ppm [2] | percent control (mortality, anti-feedant effect or growth inhibition) at 200 ppm [3] | percent control (mortality or growth inhibition) at 200 ppm [4]

CC(NC(=O)c1cc(OCC(F)(F)F)cc(C(F)(F)F)c1)c1nc(Br)nn1-c1ccc(OC(F)F)cn1 (stereo not shown) [Compound P14, N-[1-[5-bromo-2-[5-(difluoromethoxy)-2-pyridyl]-1,2,4-triazol-3-yl]ethyl]-3-(2,2,2-trifluoroethoxy)-5-(trifluoromethyl) benzamide]
≥ 80%: percent control (mortality or growth inhibition) at 200 ppm [1] | percent control (mortality, anti-feedant effect or growth inhibition) at 200 ppm [2] | percent control (mortality, anti-feedant effect or growth inhibition) at 200 ppm [3] | percent control (mortality or growth inhibition) at 200 ppm [4]

CC(NC(=O)c1cc(C(F)(F)F)cc(C(F)(F)F)c1)c1nc(-c2ncccn2)nn1-c1ccc(C#N)cn1 (stereo not shown) [Compound P32, N-[1-[2-(5-cyano-2-pyridyl)-5-pyrimidin-2-yl-1,2,4-triazol-3-yl]ethyl]-3,5-bis(trifluoromethyl) benzamide]
≥ 80%: percent control (mortality or growth inhibition) at 200 ppm [1] | percent control (mortality, anti-feedant effect or growth inhibition) at 200 ppm [2] | percent control (mortality, anti-feedant effect or growth inhibition) at 200 ppm [3] | percent control (mortality or growth inhibition) at 200 ppm [4]

CC(NC(=O)c1cc(C(F)(F)F)cc(C(F)(F)F)c1)c1nc(C#N)nn1-c1ccc(C#N)cn1 (stereo not shown) [Compound P48, N-[1-[5-cyano-2-(5-cyano-2-pyridyl)-1,2,4-triazol-3-yl]ethyl]-3,5-bis(trifluoromethyl) benzamide]
≥ 80%: percent control (mortality, anti-feedant effect or growth inhibition) at 200 ppm [2] | percent control (mortality, anti-feedant effect or growth inhibition) at 200 ppm [3] | percent control (mortality or growth inhibition) at 200 ppm [4]

CC(NC(=O)c1cc(SC(F)(F)F)cc(C(F)(F)F)c1)c1nc(Br)nn1-c1ccc(C#N)cn1 (stereo not shown) [Compound P5, N-[1-[5-bromo-2-(5-cyano-2-pyridyl)-1,2,4-triazol-3-yl]ethyl]-3-(trifluoromethyl)-5-(trifluoromethylsulfanyl)benzamide]
≥ 80%: percent control (mortality or growth inhibition) at 200 ppm [1] | percent control (mortality, anti-feedant effect or growth inhibition) at 200 ppm [2] | percent control (mortality, anti-feedant effect or growth inhibition) at 200 ppm [3] | percent control (mortality or growth inhibition) at 200 ppm [4]

CC(NC(=O)c1cc(C(F)(F)F)cc(C(F)(F)F)c1)c1nc(Br)nn1-c1ccc(OC(F)F)cn1 (stereo not shown) [Compound P6, N-[1-[5-bromo-2-[5-(difluoromethoxy)-2-pyridyl]-1,2,4-triazol-3-yl]ethyl]-3,5-bis(trifluoromethyl) benzamide]
≥ 80%: percent control (mortality or growth inhibition) at 200 ppm [1] | percent control (mortality, anti-feedant effect or growth inhibition) at 200 ppm [2] | percent control (mortality, anti-feedant effect or growth inhibition) at 200 ppm [3] | percent control (mortality or growth inhibition) at 200 ppm [4]

CC(NC(=O)c1cc(OC(F)F)cc(C(F)(F)F)c1)c1nc(Br)nn1-c1ccc(C#N)cn1 (stereo not shown) [Compound P10, N-[1-[5-bromo-2-(5-cyano-2-pyridyl)-1,2,4-triazol-3-yl]ethyl]-3-(difluoromethoxy)-5-(trifluoromethyl)benzamide]
≥ 80%: percent control (mortality or growth inhibition) at 200 ppm [1] | percent control (mortality, anti-feedant effect or growth inhibition) at 200 ppm [2] | percent control (mortality, anti-feedant effect or growth inhibition) at 200 ppm [3] | percent control (mortality or growth inhibition) at 200 ppm [4]

CC(NC(=O)c1cc(C(F)F)cc(C(F)(F)F)c1)c1nc(Br)nn1-c1ccc(OCC(F)(F)F)cn1 (stereo not shown) [Compound P54, N-[1-[5-bromo-2-[5-(2,2,2-trifluoroethoxy)-2-pyridyl]-1,2,4-triazol-3-yl]ethyl]-3-(difluoromethyl)-5-(trifluoromethyl) benzamide]
≥ 80%: percent control (mortality or growth inhibition) at 200 ppm [1] | percent control (mortality, anti-feedant effect or growth inhibition) at 200 ppm [2] | percent control (mortality, anti-feedant effect or growth inhibition) at 200 ppm [3] | percent control (mortality or growth inhibition) at 200 ppm [4]

CC(NC(=O)c1cc(OCC(F)F)cc(C(F)(F)F)c1)c1nc(Br)nn1-c1ccc(OC(F)F)cn1 (stereo not shown) [Compound P34, N-[1-[5-bromo-2-[5-(difluoromethoxy)-2-pyridyl]-1,2,4-triazol-3-yl]ethyl]-3-(2,2-difluoroethoxy)-5-(trifluoromethyl) benzamide]
≥ 80%: percent control (mortality or growth inhibition) at 200 ppm [1] | percent control (mortality, anti-feedant effect or growth inhibition) at 200 ppm [2] | percent control (mortality, anti-feedant effect or growth inhibition) at 200 ppm [3] | percent control (mortality or growth inhibition) at 200 ppm [4]

CC(NC(=O)c1cc(Br)cc(C(F)(F)F)c1)c1nc(Br)nn1-c1ccc(OCC(F)(F)F)cn1 (stereo not shown) [Compound P50, 3-bromo-N-[1-[5-bromo-2-[5-(2,2,2-trifluoroethoxy)-2-pyridyl]-1,2,4-triazol-3-yl]ethyl]-5-(trifluoromethyl) benzamide]
≥ 80%: percent control (mortality or growth inhibition) at 200 ppm [1] | percent control (mortality, anti-feedant effect or growth inhibition) at 200 ppm [2]

CC(NC(=O)c1cc(OCC(F)F)cc(C(F)(F)F)c1)c1nc(Br)nn1-c1ccc(C#N)cn1 (stereo not shown) [Compound P33, N-[1-[5-bromo-2-(5-cyano-2-pyridyl)-1,2,4-triazol-3-yl]ethyl]-3-(2,2-difluoroethoxy)-5-(trifluoromethyl)benzamide]
≥ 80%: percent control (mortality or growth inhibition) at 200 ppm [1] | percent control (mortality, anti-feedant effect or growth inhibition) at 200 ppm [2] | percent control (mortality, anti-feedant effect or growth inhibition) at 200 ppm [3]
